What is called EC50 is the midpoint of the concentration-response curve.

Consider four compounds from patent US20240239863A1, “GIP RECEPTOR AGONIST AND USE THEREOF” (HANGZHOU ZHONGMEIHUADONG PHARMACEUTICAL CO., LTD., priority 2022, published 2024).

Details of data set [1]: species or system DIO mice. Conditions: mouse, in vivo. The text has this:
(§1) […] high-fat diet-induced obese (DIO) mice were weighed. When the average weight of the mice is about 40-45 g, they are randomly assigned to Groups G2-G11 based on the body weight of the mice, with 8 mice in each group. Eight C57BL/6 mice fed with normal diet were assigned to Group G1. Each mouse in all groups was housed in a separate cage for 2-3 days to adapt to environment before grouping. During this period, the mice were adaptively caught and administrated with blank solvent daily. The day of grouping was Day 0. The Vehicle group was administrated with blank solvent (propylene glycol: 14.0 mg/mL and disodium hydrogen phosphate: 1.132 mg/mL) at pH 7.4; s.c. means subcutaneous injection; the frequency of administration QD means once a day. Such expressions may be applied to the following Examples.
Based on the assay in Example 11, the cumulative water intake of the mice was also statistically calculated and compared with the water intake of the mice in the Tirzepatide treatment group.

Data set [2] deals with human GIP receptor (glucose-dependent insulinotropic peptide receptor, GIPR) (human) (UniProt P48546). The data set is described as follows: cell-based or functional assay.
Data set [3] deals with human GLP-1 receptor (human, UniProt P43220 24-463). Description: cell-based or functional assay.
Data set [4] in a line: Liver total cholesterol (TC) and triglyceride (TG) in DIO mice (Example 11). Format: in vivo. The settings on record: 30 nmol/kg s.c. QD, Day 25, fasted 4 hours.
Description: as §1
(§2) The animals were weighed before grouping (i.e. before the first administration) and every 3 days after grouping. At the end of the experiment (Day 25), the mice were fasted for 4 hours. The livers of all mice in Groups G1-G8 were collected and weighed. About 20 mg of the livers were homogenized. The homogenate was taken to measure total cholesterol (TC) and […] (TG).

Data set [5] can be described thus: Body weight of DIO mice after 28 days of administration (Example 10). Type of data set: in vivo, DIO male mice. Conditions: 2 nmol/kg s.c. QD. Here is the method: Eight or more C57BL/6J male mice at an age of 16 to 18 weeks and fifty-six or more DIO male mice with obesity induced by high-fat feed at an age of 16 to 18 weeks were selected. After entering the animal facility, all mice were adaptively fed for 3 days or more. They were required to adapt for 3 days before grouping. All mice were measured for body weight, body fat ratio and fasting blood glucose. Fifty-six DIO mice were randomly grouped primarily based on body weight and fasting blood glucose and secondarily based on body fat ratio. 8 C57BL/6J mice of close weekly age were assigned into the healthy control group. Each mouse in all groups was housed in a separate cage for 2-3 days to adapt to environment before grouping. During the period, the mice were adaptively caught and administrated with blank solvent daily. The day of grouping was Day 0, and the administration was continued for 28 days. […]
The body weight of each mouse was recorded every day according to the frequency of administration. Postprandial blood glucose was measured every 3 days, fasting blood glucose was measured every 7 days, and IPGTT (Intraperitoneal Glucose Tolerance Tests) was conducted once before the end point. […]

The nature of data set [6]: Body weight of DIO mice, 25 days, different administration ratios (Example 11). Format: in vivo. Conditions: 30 nmol/kg s.c. QD, Day 25.
Description: as §1, §2

Data set [7] in a line: Fasting blood glucose in STZ type 2 diabetic mice after 7 days (Example 9). Format: in vivo. The settings on record: for Fasting Blood Glucose Value, 0 day: 0 day (baseline). An excerpt:
Male mice were allowed to adapt to new environment for 1 week before treatment. The mice were divided into several groups (n=6-8/group). The individual was screened and divided into groups based on body weight and fasting blood glucose. Grouping was done by screening in a balanced manner, so as to exclude individuals that were too large or too small. A blank buffer or a test compound was subcutaneously administrated to the animals once a day. The individuals in the body weight group were weighted daily before administration, while the individuals in the fasting blood glucose group (fasting for 4 hours) were measured for their blood glucose 7 days after administration.

A short description of data set [8]: Body weight of DIO mice, high dosage, 21 days (Example 12). The settings on record: 30 nmol/kg s.c. QD. Format: in vivo. The text has this:
72 diet-induced obese (DIO) mice were weighed. (Screening and Grouping) When the average weight of the mice is about 40-45 g, they are randomly assigned to Groups G2-G11 based on the body weights of the mice, with 8 mice in each group. Eight C57BL/6 mice fed with normal diet were assigned to Group G1. Each mouse in all groups was housed in a separate cage for 2-3 days to adapt to environment before grouping. During this period, the mice were adaptively caught and administrated with blank solvent (propylene glycol: 14.0 mg/mL and disodium hydrogen phosphate: 1.132 mg/mL, pH 7.4) daily. The day of grouping was Day 0.

The target of data set [9] is hGLP-1R (Homo sapiens, UniProt P43220). The data set is described as follows: Cell agonistic activity at GLP-1 receptor (Example 7). Conditions: read-out: hGLP-1R EC50. Type of data set: cell-based.
For data set [10], the target named is T1, hGIPR (Homo sapiens, UniProt P48546).
T1 construct: expressed in transfected cells; host or cells: HEK293, stably transduced
T1 sequence (P48546 22-466): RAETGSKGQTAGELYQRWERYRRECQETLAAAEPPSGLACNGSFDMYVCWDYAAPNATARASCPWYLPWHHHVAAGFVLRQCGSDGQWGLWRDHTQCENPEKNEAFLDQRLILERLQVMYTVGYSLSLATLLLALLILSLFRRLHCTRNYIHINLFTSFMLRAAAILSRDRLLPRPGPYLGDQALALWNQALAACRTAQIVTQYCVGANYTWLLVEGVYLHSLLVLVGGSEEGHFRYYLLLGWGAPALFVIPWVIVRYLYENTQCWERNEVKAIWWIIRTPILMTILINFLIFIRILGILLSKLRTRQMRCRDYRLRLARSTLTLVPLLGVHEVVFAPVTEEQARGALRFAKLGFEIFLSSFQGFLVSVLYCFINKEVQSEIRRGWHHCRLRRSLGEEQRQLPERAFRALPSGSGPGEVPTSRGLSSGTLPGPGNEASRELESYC
The data set is described as follows: HTRF cAMP cell agonistic activity assay, HEK293 stably expressing GIPR (Example 7). Type of data set: cell-based. Here is the method:
The agonistic activity of the compounds on the receptor was determined using the HTRF kit (purchased from Perkin Elmer). All reagents in the kit were allowed to equilibrate to room temperature before use. A 1× Stimulation Buffer was formulated according to the instruction in the kit for use. […] GIPR cells were digested with trypsin, centrifuged to remove the culture medium. The cells were resuspended in the 1× Stimulation Buffer. After being counted, 9 μL cell dilutions were inoculated into a 384-well plate at 1000 cells/well. 1 μL the 10× compound diluted in step 2 was taken and added to the corresponding test well, wherein 1 μL the 10× initial concentration positive compound was added to the PC hole (Min value), and 1 μL the 10×DMSO buffer (1%) was added to the VC hole (Max value). The plate was centrifuged and incubated at 37 °C for 30 minutes. Eu-cAMP was diluted with Detection buffer to a working concentration, and the diluent was added into the corresponding test well at 5 μL/well. ULight-anti-Camp was diluted with Detection buffer to a working concentration, and the diluent was added into the corresponding test well at 5 μL/well. After being centrifuged, the plate was incubated at room temperature for 1 hour. […] The nonlinear regression method of GraphPad Prism software was used for curve fitting and EC50 calculation.

Setting [11] is: 2.4 nmol/kg s.c. once a day, 7 days.
[12] abbreviates: 14.4 nmol/kg s.c. once a day, 7 days.

Starred links: 1 amine or outer side, 2 acyl side, 3 side chain; linkers in the order of their positions; H or OH if unused. Non-standard residues stand in square brackets, D forms with d. Residues, ends and D or L forms follow the SMILES beside them. Groups on a side chain read outwards from the residue. *: point of attachment. d(γGlu) = O=C(O)[C@@H](CCC(=O)[*:2])N[*:1]; C18 diacid = O=C(O)CCCCCCCCCCCCCCCCC(=O)*; AEEA = NCCOCCOCC(=O)O; Aib = CC(C)(N)C(=O)O

hGLP-1R, sequence (P43220 24-463): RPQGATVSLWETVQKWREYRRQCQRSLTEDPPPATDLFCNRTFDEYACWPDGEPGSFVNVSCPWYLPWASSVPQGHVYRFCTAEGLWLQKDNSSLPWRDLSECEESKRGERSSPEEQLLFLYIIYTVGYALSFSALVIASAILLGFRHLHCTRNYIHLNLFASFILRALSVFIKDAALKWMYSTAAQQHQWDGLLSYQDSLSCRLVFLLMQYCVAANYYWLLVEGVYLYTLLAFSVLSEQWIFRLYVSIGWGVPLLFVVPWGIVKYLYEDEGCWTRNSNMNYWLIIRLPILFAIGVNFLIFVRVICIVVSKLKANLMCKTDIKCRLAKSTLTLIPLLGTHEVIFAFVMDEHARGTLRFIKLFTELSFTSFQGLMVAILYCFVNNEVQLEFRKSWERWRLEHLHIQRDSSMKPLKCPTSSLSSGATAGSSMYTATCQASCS
human GLP-1 receptor, sequence (P43220 24-463): as above

`CC[C@H](C)[C@H](NC(=O)[C@H](CC(C)C)NC(=O)[C@H](Cc1c[nH]c2ccccc12)NC(=O)[C@H](CCC(N)=O)NC(=O)[C@@H](NC(=O)[C@H](Cc1ccccc1)NC(=O)[C@H](C)NC(=O)[C@H](CCCCNC(=O)COCCOCCNC(=O)COCCOCCNC(=O)CC[C@H](NC(=O)CCCCCCCCCCCCCCCCCCC(=O)O)C(=O)O)NC(=O)[C@H](CCC(N)=O)NC(=O)[C@H](C)NC(=O)[C@@H](NC(=O)[C@H](CCCCN)NC(=O)[C@H](CC(=O)O)NC(=O)[C@H](CC(C)C)NC(=O)C(C)(C)NC(=O)[C@@H](NC(=O)[C@H](CO)NC(=O)[C@H](Cc1ccc(O)cc1)NC(=O)[C@H](CC(=O)O)NC(=O)[C@H](CO)NC(=O)[C@@H](NC(=O)[C@H](Cc1ccccc1)NC(=O)[C@@H](NC(=O)CNC(=O)[C@H](CCC(=O)O)NC(=O)C(C)(C)NC(=O)[C@@H](N)Cc1ccc(O)cc1)[C@@H](C)O)[C@@H](C)O)[C@@H](C)CC)[C@@H](C)CC)C(C)C)C(=O)N[C@@H](C)C(=O)NCC(=O)NCC(=O)N1CCC[C@H]1C(=O)N[C@@H](CO)C(=O)N[C@@H](CO)C(=O)NCC(=O)N[C@@H](C)C(=O)N1CCC[C@H]1C(=O)N1CCC[C@H]1C(=O)N1CCC[C@H]1C(=O)N[C@@H](CO)C(N)=O` [Tirzepatide]: the “water intake / adverse responses” value in [1] is listed as “significantly inhibited”.

As to “hGLP-1 (7-37) (from UniProt P01275 21-180) (ligand)”, the EC50(pM), cell agonistic activity (cAMP, HTRF) in data set [2] is above 100 pM. The EC50(pM), cell agonistic activity in data set [3] was found to be 7.01 pM.

Regarding “N^6,26-{18-[N-(17-carboxylheptadecanoyl)-L-γ-glutamyl]-10-oxo-3,6,12,15-tetraoxa-9,18-diazaoctadecanoyl}-[8-(2-amino-2-propionic acid), 34-L-arginine] human glucagon-like peptide 1 (7-37) [GLP-1 Analog]”, the TC in [4] stood at 4.89 ± 0.12 mM. Moreover, the TG in data set [4] was 0.91 ± 0.03 mM. The Weight in data set [5] turned out to be 40.2 ± 1.5 g. Besides, in data set [5], the “Weight Change” value is listed as −3.2%. Also, the “Body Weight” value is given as 31.1 ± 0.7 g in data set [6], 31.1 ± 0.7 g in [6] (listed as GLP-1 Analogs) and 33.1 ± 0.7 g in data set [8] (Day 21). Moreover, the figures for the “Fasting Blood Glucose Value, 0 day” value in [7] (2.4 nmol/kg s.c. once a day) and in [7] (14.4 nmol/kg s.c. once a day) were 27.17 ± 2.01 mmol/L and 26.96 ± 1.60 mmol/L, respectively. The “Decrease of Blood Glucose, 7 days” value in data set [7] (setting [11]) is on record as 27.10 ± 13.55%; in data set [7] (setting [12]), 49.30 ± 17.03%. Moreover, the “Fasting Blood Glucose Value, 7 days” value in data set [7] (setting [11]) was determined as 19.82 ± 3.79 mmol/L; in [7] (setting [12]) it was 13.66 ± 4.94 mmol/L. The “blood glucose values, single drug treatment” value in data set [7] (2.4 and 14.4 nmol/kg, 7 days) is “decrease in blood glucose values”. Further, the “Body Weight Reduction Percentage at Day 21” value in data set [8] is on record as 24.7 ± 1.3 %.

Regarding `CC[C@H](C)[C@H](NC(=O)[C@H](CO)NC(=O)[C@H](Cc1ccc(O)cc1)NC(=O)[C@H](CC(=O)O)NC(=O)[C@H](CO)NC(=O)[C@@H](NC(=O)[C@H](Cc1ccccc1)NC(=O)[C@@H](NC(=O)CNC(=O)[C@H](CCC(=O)O)NC(=O)C(C)(C)NC(=O)[C@@H](N)Cc1ccc(O)cc1)[C@@H](C)O)[C@@H](C)CC)C(=O)N[C@@H](C)C(=O)N[C@@H](CC(C)C)C(=O)N[C@@H](CC(=O)O)C(=O)N[C@@H](CCCNC(=N)N)C(=O)N[C@H](C(=O)N[C@@H](Cc1c[nH]cn1)C(=O)N[C@@H](CCC(N)=O)C(=O)N[C@@H](CCC(N)=O)C(=O)N[C@@H](CC(=O)O)C(=O)N[C@@H](Cc1ccccc1)C(=O)N[C@H](C(=O)N[C@@H](CC(N)=O)C(=O)N[C@@H](Cc1c[nH]c2ccccc12)C(=O)N[C@@H](CC(C)C)C(=O)N[C@@H](CC(C)C)C(=O)N[C@@H](C)C(=O)N[C@@H](CCC(N)=O)C(=O)N[C@@H](CCCCNC(=O)COCCOCCNC(=O)COCCOCCNC(=O)CC[C@@H](NC(=O)CCCCCCCCCCCCCCCCC(=O)O)C(=O)O)C(=O)NCC(=O)O)C(C)C)[C@@H](C)CC` [Peptide 14, N-{ε-30}-18-{[(23R)-23-carboxyl-2,11,20-trioxo-10,19-diaza-4,7,13,16-tetraoxatricosyl-23-yl]amino}-18-oxooctadecanoic acid acetyl-[Aib2, L14, R16]-hGIP(1-31)] (H-Y[Aib]EGTFISDYSIALDRIHQQDFVNWLLAQK([AEEA-AEEA-d(γGlu)-C18 diacid])G-OH), the figures for the EC50 in [9] and in data set [10] were above 100 pM and 3.5 pM, respectively.
